Laboratory results from patent US11096906B2, “Pharmaceutical composition for preventing or treating Alzheimer's disease” (SFCBIO. CO., LTD., priority 2015, dated 2021).

Experiments:
Assay type in all cases: cell-based
sAPPβ protein = assay: Amount of sAPPβ protein released from APPwt-CHO cells, by western blot; settings: for reduction of the amount of sAPPβ protein as compared to the control group: APPwt-CHO cells
Experimental: (§1) In order to evaluate the ability of suppressing β-amyloid formation of Compounds 1-3, APPwt-CHO cells obtained by overexpressing APP in CHO cells were used and the amount of the sAPPβ protein cleaved by β-secretase and released out of the cells was measured by western blot. When the APP precursor protein is cleaved first by β-secretase, sAPPβ is released out of the cell. The protein remaining attached to the membrane is cleaved again by γ-secretase to produce β-amyloid. Accordingly, the amount of β-secretase and sAPPβ is proportional to the amount of the produced β-amyloid. Therefore, the amount of the two proteins was measured by western blot.

β-secretase = assay: Amount of β-secretase protein in APPwt-CHO cells, by western blot; settings: for reduction of the amount of β-secretase protein as compared to the control group: APPwt-CHO cells
Experimental: as §1

APP*t-CHO cells = assay: MTT-based cytotoxicity assay
Experimental: The cytotoxicity of Compounds 1-3 separated and identified in Examples 1-5 was investigated by MTT-based cytotoxicity assay. APP*t-CHO cells treated with Compounds 1-3 were cultured for 24 hours. After adding a 5 mg/mL MTT solution, the cells were cultured for 4 hours. After removing the culture medium and lysing the cells for 30 minutes by adding DMSO, absorbance was measured at 540 nm using the Emax precision microplate reader (Molecular Devices, CA, USA).

[1] = 100 μg/mL, cells cultured 24 hours, MTT

| SMILES | reduction of the amount of sAPPβ protein as compared to the control group (sAPPβ protein; 10 μg/mL) | reduction of the amount of sAPPβ protein as compared to the control group (sAPPβ protein; 20 μg/mL) | reduction of the amount of β-secretase protein as compared to the control group (β-secretase; 10 μg/mL) | reduction of the amount of β-secretase protein as compared to the control group (β-secretase; 20 μg/mL) | cytotoxicity (APP*t-CHO cells; [1]) | reduction of the amount of sAPPβ protein as compared to the control group (sAPPβ protein; 100 μg/mL) | reduction of the amount of β-secretase protein as compared to the control group (β-secretase; 100 μg/mL) | reduction of the amount of sAPPβ (in words) (sAPPβ protein; 20 μg/mL) | decrease of the amount of β-secretase (in words) (β-secretase) | cytotoxicity (APP*t-CHO cells; 20 μg/mL) | concentration at which toxicity was shown (APP*t-CHO cells; cells cultured 24 hours, MTT) [ng/mL] |
| --- | --- | --- | --- | --- | --- | --- | --- | --- | --- | --- | --- |
| CCCC(=O)c1c(O)cc(O)cc1O [Compound 1, butyrylphloroglucinol] | about 20% | about 70% | about 10% | about 30% | no toxicity |  |  |  |  |  |  |
| CCC(=O)c1c(O)cc(O)c(C)c1O [Compound 2, 2-propionyl-4-methylphloroglucinol] |  | about 40% |  | about 40% | no toxicity | about 80% | about 60% |  |  |  |  |
| CCCC(=O)c1c(O)cc(O)c(C)c1O [Compound 3, 2-butyryl-4-methylphloroglucinol] | about 40% | about 80% | about 20% | about 30% | showed toxicity |  |  | almost perfectly | effectively decreased | no toxicity was observed | ≥ 30000 |
